Assay results published in US20150132405A1, “SYNERGISTIC COMPOSITIONS OF MONOCHLOROUREA AND MODIFIED MONOCHLOROUREAS” (HERCULES INCORPORATED, priority 2013, published 2015).
In brackets after ≈: the same amount, converted by molar mass. Like-named read-outs stand apart in the source and are kept apart here.

Tested on: Escherichia coli
Assay: Minimal Inhibitory Concentration (MIC), two-fold dilution series in 96 well microplate
Type: cell-based
Settings: for MIC (QA), used alone: first biocide used alone
Description: While there are various methods known to individuals skilled in the art for measuring levels of antimicrobial activity, in the following examples the endpoint used is known as the Minimal Inhibitory Concentration, or MIC. This is the lowest concentration of a substance or substances which can achieve complete inhibition of growth.
In order to determine the Minimal Inhibitory Concentration, a two-fold dilution series of the biocide is constructed with the dilutions being made in growth media. The dilutions are made in a 96 well microplate such that each well has a final volume of 280 μl of media and biocide. The first well has, for example, a concentration of 1000 ppm biocide, the second 500 ppm, the third 250 ppm, and so forth, with the 12th and final well in the row having no biocide at all and serving as a positive growth control. After the dilution series is constructed the wells receive an inoculum of microbe suspended in growth media such that the final concentration of microbes in the well is ˜5×10^5 cfu/ml. In these examples the test microbe used is Escherichia coli. The cultures are incubated at an appropriate temperature for 18-24 hours, and the wells scored as positive or negative for growth based on a visual examination for turbid wells.

[1] = Escherichia coli, second biocide used alone, complete inhibition of growth, 18-24 hours, read-out: MIC (QB), used alone
[2] = second biocide used alone, complete inhibition of growth, 18-24 hours
[3] = Escherichia coli, used alone, Table 26
[4] = complete inhibition of growth, 18-24 hours

CC1(C)C(=O)N(Cl)C(=O)N1Br [BCDMH, 1-bromo-3-chloro-5,5-dimethylhydantoin]
MIC [1]: 61 µg/mL (≈ 253 µM)

O=[N+]([O-])C(Br)(CO)CO [BNPD, 2-bromo-2-nitropropane-1,3,-diol]
MIC (QB), used alone [2]: 24 ppm

N#CC(Br)(Br)C(N)=O [DBNPA, 2,2-dibromo-3-nitrilopropionamide]
MIC [1]: 11 µg/mL (≈ 45.5 µM)

CNC(=O)N(C)Cl [DMCU, dimethyl monochlorourea]
DMCU MIC (QA), used alone [3]: 10 ppm | DMCU MIC (QA), used alone (Escherichia coli, used alone, Table 27): 10 ppm | DMCU MIC (QA), used alone (Escherichia coli, used alone, Table 28): 10 ppm | MIC (QA), used alone [4]: 10 ppm | MIC (QB), used alone [2]: 10 ppm

O=CCCCC=O [GLUT, glutaraldehyde]
MIC [1]: 45 µg/mL (≈ 449 µM) | MIC (Escherichia coli, used alone, Table 28, read-out: GLUT MIC (QB), used alone): 45 µg/mL (≈ 449 µM)

OO [H2O2, hydrogen peroxide]
MIC (QB), used alone [2]: 1000 ppm

N#CSCSC#N [MBT, methylene bisthiocyanate]
MIC (Escherichia coli, read-out: MIC (QB), used alone): 8 µg/mL (≈ 61.4 µM)

NCl [MCA, monochloramine]
MIC (QB), used alone [2]: 47 ppm

NC(=O)NCl [MCU, monochlorourea]
MIC (QA), used alone [4]: 100 ppm | MIC (QB), used alone [2]: 100 ppm

N-alkyl (C12-C16)-N,N-dimethyl benzylalkonium chloride [QAC]
QAC MIC (QB), used alone [3]: 27 ppm | MIC (QB), used alone [2]: 27 ppm

methyl monochlorourea [MMCU]
MIC (QB), used alone [2]: 16 ppm
